Consider 1 compound from publication PMC11040670, “Mechanistic and Kinetic Insights into Cellular Uptake of Biomimetic Dinitrosyl Iron Complexes and Intracellular Delivery of NO for Activation of Cytoprotective HO-1” (JACS Au, 2024).

The target in test [1] is T1, metMb (Equus caballus, UniProt P68082).
T1 construct: purchased Sigma
More on the design: method as in PMID 37533298. As to conditions: dinuclear DNIC, no Cys; cited from earlier work.

Test [2] concerns deoxyMb. Also noted: method as in PMID 37533298. As to conditions: dinuclear DNIC, no Cys; cited from earlier work.
The subject of test [3] is HMOX1 gene. Description: Activation of HMOX1/HO-1, stated jointly for MSC/N2a/HCEC (incl. PTIO/ODQ). In kind it is cell-based. The protocol: After treatment of (1) 100 μM of DNIC–COOH to MSC, (2) 100 μM of DNIC–COOH to N2a, (3) 75 μM of DNIC–COOH to HCEC, (4) 2.5 μM of DNIC–COOMe to MSC, (5) 10 μM of DNIC–COOMe to N2a, and (6) 1 μM of DNIC–COOMe to HCEC, respectively, the total RNA of the treated cells was extracted using TRIzol Reagent (Thermo Fisher Scientific) in order to assess the time-dependent change in the mRNA level of HO-1. After the synthesis of complementary DNA with the High-Capacity Reverse Transcription Kit, qPCR was conducted using Power SYBR Green PCR Master Mix with the StepOnePlus Real-Time PCR System (Thermo Fisher Scientific). The primer sequences were as follows: HMOX1 forward 5′-[…]-3′ and reverse 5′-[…]-3′; RPL13A forward 5′-[…]-3′ and reverse 5′- […]-3′; GAPDH forward 5′-[…]-3′ and reverse 5′-[…]-3′. The relative mRNA levels of target genes were determined by a comparative threshold cycle method and normalized to that of RPL13A (or GAPDH). The mRNA level of HO-1 in the MSC, N2a, and HCEC cells, respectively, that received the (1) sequential treatments of 1H-[1,2,4]oxadiazolo-[4,3-a]quinoxalin-1-one (ODQ, 10 μM for 1 h) and DNIC–COOH (100 μM in MSC for 3 h, 100 μM in N2a for 10 h, and 75 μM in HCEC for 6 h) or (2) cotreatment of 2-phenyl-4,4,5,5-tetramethylimidazoline-1-oxyl-3-oxide ([…]) and DNIC–COOH (100 μM in MSC for 3 h, 100 μM in N2a for 10 h, and 75 μM in HCEC for 6 h) was also evaluated under a similar procedure.

T1 sequence (P68082 2-154 limits assumed): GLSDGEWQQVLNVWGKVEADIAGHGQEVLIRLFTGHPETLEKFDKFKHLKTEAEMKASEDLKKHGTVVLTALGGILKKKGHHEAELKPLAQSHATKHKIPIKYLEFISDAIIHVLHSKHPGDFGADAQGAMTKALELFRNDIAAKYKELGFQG

As to `O=[N][Fe]1([N]=O)[SH](CCC(=O)O)[Fe]([N]=O)([N]=O)[SH]1CCC(=O)O` (stereo not drawn) [DNIC–COOH, [(NO)2Fe(μ-SCH2CH2COOH)2Fe(NO)2]], the “reactivity toward the Fe3+-porphyrin center in metMb” value in test [1] is on record as “inert”. For the same compound, the “nitrosylation of the Fe2+-porphyrin center in deoxyMb” value in test [2] was “efficient nitrosylation”. In test [3] (at t = 3–10 h (abstract)), the “activation of cytoprotective HO-1” value is on record as 50–150 fold change. Moreover, the “effect on transcriptional activation of HMOX1 gene by DNIC–COOH” value in test [3] (cotreatment of PTIO to MSC/HCEC) is given as “no significant perturbation”; in test [3] (higher concentration of PTIO (100 μM) to N2a) it was “reduced transcriptional activation”; in test [3] (pretreatment of ODQ to MSC/N2a/HCEC), “no significant perturbation”.
